Experimental data: article PMC9958325 (Nature Communications, 2023)
Values joined by “and” are separate entries in the source; they are usually repeats but may differ in a detail not shown here. Equal values may be shown once. Read-outs that look alike come from different tables or passages of the source.

Experiments:
[1] = system: SARS-CoV-2 TKYTS14631/ο BA.5; assay: microbe, parasite or virus in culture; type: cell-based
[2] = system: SARS-CoV-2 TKYX00012/ο BA.1; assay: microbe, parasite or virus in culture; type: cell-based
[3] = system: SARS-CoV-2 UT-NCD1757-1N/ο BA.2.75; assay: microbe, parasite or virus in culture; type: cell-based
[4] = system: SARS-CoV-2 TKYS02037/ο BA.2; assay: microbe, parasite or virus in culture; type: cell-based
[5] = system: SARS-CoV-2^WK521 in A549-ACE2-TMPRSS2 cells; assay: Antiviral assay, A549-ACE2-TMPRSS2 cells, WK521; type: cell-based
[6] = system: SARS-CoV-2^WK521 in HeLa-ACE2-TMPRSS2 cells; assay: Antiviral assay, HeLa-ACE2-TMPRSS2 cells, WK521; type: cell-based
[7] = Pharmacokinetic study in PXB-mice (human liver-chimeric); conditions: for Vdss / AUC: mean ± S.E.; for AUC: n=3; for Plasma concentration: individual mice

In the case of `CC(C)(C)[C@H](NC(=O)C(F)(F)F)C(=O)N1C[C@H]2[C@@H]([C@H]1C(=O)N[C@@H](C[C@@H]1CCNC1=O)C(=O)c1nc3c(F)cccc3s1)C2(C)C` [TKB245], the EC50 ([1]; read-out: EC50 against TKYTS14631/ο BA.5) is reported as 19 ± 5 nM, the EC50 ([1]; read-out: EC50 ο BA5, Average) is reported as 18.8 nM and the EC50 ([1]; read-out: EC50 ο BA5, individual assays) is reported as 16.1 nM and 24.7 nM and 15.6 nM. The EC50 ([2]; read-out: EC50 ο BA1, Average) was 13.7 nM, the EC50 ([2]; read-out: EC50 ο BA1, individual assays) was 10 nM and 7 nM and 24.2 nM and the EC50 ([3]; read-out: EC50 against UT-NCD1757-1N/ο BA.2.75) was 49 ± 5 nM. For the same molecule, the EC50 ([3]; read-out: EC50 ο BA2.75, Average) was 49.3 nM, the EC50 ([3]; read-out: EC50 ο BA2.75, individual assays) was 55 nM and 44 nM and the EC50 ([4]; read-out: EC50 against TKYVS2037/ο BA.2) was 45 ± 14 nM. The EC50 ([4]; read-out: EC50 ο BA2, Average) was 45.3 nM, the EC50 ([4]; read-out: EC50 ο BA2, individual assays) was 60 nM and 32 nM and 44 nM and the EC50 ([5]; SARS-CoV-2^WK521, read-out: EC50, A549-ACE2-TMPRSS2) was 2.7 ± 0.2 nM. The EC50 ([5]; source data, listed as TKB0245, read-out: EC50, A549-AEC2-TMPRSS2, individual assays) was 3 nM and 2.47 nM and 2.78 nM, the EC50 ([5]; source data, read-out: EC50, A549-AEC2-TMPRSS2, Average) was 2.75 nM and the EC50 ([6]; SARS-CoV-2^WK521, read-out: EC50, HeLa-ACE2-TMPRSS2) was 21 ± 8 nM. For the same molecule, the EC50 ([6]; source data, listed as TKB0245, read-out: EC50, HeLa-AEC2-TMPRSS2, individual assays) was 14 nM and 30 nM and 20 nM, the EC50 ([6]; source data, read-out: EC50, HeLa-AEC2-TMPRSS2, Average) was 21.3 nM and the Cmax ([7]; N = 3 male PXB-mouse, 10 mg/kg p.o.) was 1,901¶ ng/mL. For the same molecule, the T1/2 ([7]; N = 3 male PXB-mouse, 10 mg/kg, oral (p.o.) value for TKB245) was 3.82¶ h, the t1/2 ([7]; PXB-mice, 10 mg/kg i.v.) was 1.25 h and the Vdss ([7]; PXB-mice, 10 mg/kg i.v.) was 0.0302 ± 0.00381 L/kg. It also gave an AUC ([7]; PXB-mice, 10 mg/kg i.v.) of 10700 ± 540 ng·h/mL, a Vdss ([7]; PXB-mice, 10 mg/kg p.o.) of 0.1941 ± 0.03543 L/kg and an AUC ([7]; PXB-mice, 10 mg/kg p.o.) of 5120 ± 430 ng·h/mL. The Plasma concentration ([7]; PXB-mice, i.v. 10 mg/kg, 10 min) was 8436.5 ng/mL, the Plasma concentration ([7]; PXB-mice, i.v. 10 mg/kg, 10 min, listed as TKB0245, 10 mg/kg) was 8433.5 ng/mL and 10627.1 ng/mL and the Plasma concentration ([7]; PXB-mice, i.v. 10 mg/kg, 0.17 hr, listed as TKB0245, 10 mg/kg) was 8440 ng/mL and 8430 ng/mL and 10630 ng/mL. For the same molecule, the Plasma concentration ([7]; PXB-mice, i.v. 10 mg/kg, 60 min, listed as TKB0245, 10 mg/kg) was 2816 ng/mL and 2507.3 ng/mL and 3230 ng/mL, the Plasma concentration ([7]; PXB-mice, i.v. 10 mg/kg, 1 hr, listed as TKB0245, 10 mg/kg) was 2820 ng/mL and 2510 ng/mL and 3230 ng/mL and the Plasma concentration ([7]; PXB-mice, i.v. 10 mg/kg, 240 min, listed as TKB0245, 10 mg/kg) was 47 ng/mL and 52.3 ng/mL and 95 ng/mL. The Plasma concentration ([7]; PXB-mice, i.v. 10 mg/kg, 4 hr, listed as TKB0245, 10 mg/kg) was 0.05 µg/ml (2×) and 0.09 µg/ml, the Plasma concentration ([7]; PXB-mice, i.v. 10 mg/kg, 480 min, listed as TKB0245, 10 mg/kg) was 10.4 ng/mL and 14.8 ng/mL and 20 ng/mL and the Plasma concentration ([7]; PXB-mice, i.v. 10 mg/kg, 8 hr, listed as TKB0245, 10 mg/kg) was 0.01 µg/ml (2×) and 0.02 µg/ml. For the same molecule, the Plasma concentration ([7]; PXB-mice, i.v. 10 mg/kg, 1440 min, listed as TKB0245, 10 mg/kg) was 13.6 ng/mL and 11.6 ng/mL and 12.4 ng/mL, the Plasma concentration ([7]; PXB-mice, i.v. 10 mg/kg, 24 hr) was 10 ng/mL and the Plasma concentration ([7]; PXB-mice, p.o. 10 mg/kg, 10 min, listed as TKB0245, 10 mg/kg) was 914.5 ng/mL and 1553.1 ng/mL and 2872.3 ng/mL. For the same molecule, the Plasma concentration ([7]; PXB-mice, p.o. 10 mg/kg, 0.17 hr, listed as TKB0245, 10 mg/kg) was 910 ng/mL and 1550 ng/mL and 2870 ng/mL, the Plasma concentration ([7]; PXB-mice, p.o. 10 mg/kg, 60 min, listed as TKB0245, 10 mg/kg) was 1278.1 ng/mL and 1343.7 ng/mL and 1794.3 ng/mL and the Plasma concentration ([7]; PXB-mice, p.o. 10 mg/kg, 1 hr, listed as TKB0245, 10 mg/kg) was 1280 ng/mL and 1340 ng/mL and 1790 ng/mL.
